Test results: US10806739B2, “Use of n-desmethylclobazam in the treatment of chronic pain disorders and related methods” (LES HOPITAUX UNIV[…] GENEVE, priority 2015, dated 2020)

Assays:
α3β3γ2 GABAAR = target: T1, α3β3γ2 GABAAR (Rattus norvegicus, UniProt P18508+P20236); test: Whole-cell patch-clamp, potentiation of GABA-evoked currents in transfected HEK293 cells; format: cell-based; conditions: α3GABAARs; GABA at EC10
T1 construct: expressed in transfected cells; host or cells: HEK293 cells (ATCC)
T1 sequence (P20236 29-493): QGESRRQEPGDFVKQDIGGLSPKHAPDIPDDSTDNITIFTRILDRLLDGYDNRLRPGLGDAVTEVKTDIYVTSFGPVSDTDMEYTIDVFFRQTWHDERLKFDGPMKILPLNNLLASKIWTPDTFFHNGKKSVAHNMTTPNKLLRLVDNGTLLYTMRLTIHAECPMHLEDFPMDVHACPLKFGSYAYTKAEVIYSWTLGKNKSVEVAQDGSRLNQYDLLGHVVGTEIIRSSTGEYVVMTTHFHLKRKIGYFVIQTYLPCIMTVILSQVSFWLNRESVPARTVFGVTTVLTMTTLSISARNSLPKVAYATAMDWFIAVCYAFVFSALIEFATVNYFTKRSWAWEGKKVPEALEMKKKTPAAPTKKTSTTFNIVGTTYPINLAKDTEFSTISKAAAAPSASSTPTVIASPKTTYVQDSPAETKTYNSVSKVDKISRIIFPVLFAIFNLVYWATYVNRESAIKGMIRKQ
T1 sequence (P63079 26-473 partner): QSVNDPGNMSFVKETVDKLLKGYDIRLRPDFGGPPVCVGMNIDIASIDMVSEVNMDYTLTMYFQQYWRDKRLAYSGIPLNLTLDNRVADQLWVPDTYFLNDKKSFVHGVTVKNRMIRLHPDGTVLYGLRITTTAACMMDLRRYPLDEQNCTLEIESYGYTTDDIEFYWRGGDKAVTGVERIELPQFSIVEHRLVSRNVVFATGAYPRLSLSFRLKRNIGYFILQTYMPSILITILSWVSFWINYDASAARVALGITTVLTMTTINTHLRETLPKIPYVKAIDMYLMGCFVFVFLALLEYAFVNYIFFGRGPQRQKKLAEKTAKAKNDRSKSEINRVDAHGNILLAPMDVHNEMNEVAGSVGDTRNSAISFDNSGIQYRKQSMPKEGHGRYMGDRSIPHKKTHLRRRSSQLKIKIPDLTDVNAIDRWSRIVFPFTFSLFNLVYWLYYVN
T1 sequence (P18508 39-466): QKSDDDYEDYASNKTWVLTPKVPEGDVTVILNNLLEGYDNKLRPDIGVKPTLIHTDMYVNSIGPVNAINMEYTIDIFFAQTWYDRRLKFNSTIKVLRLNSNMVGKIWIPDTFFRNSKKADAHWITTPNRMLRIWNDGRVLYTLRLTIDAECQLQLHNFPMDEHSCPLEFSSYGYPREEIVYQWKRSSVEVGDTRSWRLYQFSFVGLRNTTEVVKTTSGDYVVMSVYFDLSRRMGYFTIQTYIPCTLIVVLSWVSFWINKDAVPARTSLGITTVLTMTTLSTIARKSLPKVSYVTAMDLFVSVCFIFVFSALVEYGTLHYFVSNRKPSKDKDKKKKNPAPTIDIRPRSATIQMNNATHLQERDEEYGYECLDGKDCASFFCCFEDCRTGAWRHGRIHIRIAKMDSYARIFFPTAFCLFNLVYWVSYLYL
Source text: (§1) To ensure expression of the γ2 subunit (required for modulation of GABAAR currents by BDZs) in all recorded cells, cells were transfected with a plasmid expressing the γ2 subunit plus eGFP from an IRES (internal ribosome entry site) and only eGFP-positive cells were selected for recordings. The transfection mixture contained (in μg): […], 3 γ2/eGFP (used as a marker of successful transfection). Whole-cell patch-clamp recordings were made 18-36 hrs after transfection at room temperature (20-24° C.) and at a holding membrane potential of −60 mV. Recording electrodes were filled with solution containing (in mM): 120 CsCl, 10 EGTA (aminopolycarboxylic acid), 10 HEPES (4-(2-hydroxyethyl)-1-piperazineethanesulfonic acid, pH 7.40), 4 MgCl2, 0.5 GTP (guanosine-5′-triphosphate) and 2 ATP (adenosine triphosphate). The external solution contained (in mM): 150 NaCl, 10 KCl, 2.0 CaCl2, 1.0 MgCl2, 10 HEPES (pH 7.40), and 10 glucose. GABA was applied to the recorded cell using a manually controlled pulse (6-10 s) of a low sub-saturating GABA concentration (EC10). […] EC50 values and Hill coefficients (nH) were obtained from fits of normalized concentration-response curves to the equation: IGABA=Imax[GABA]nH/([GABA]nH+[EC50]nH). Imax was determined as the average maximal current elicited by saturating concentration of GABA (30 μM−3 mM, depending on the subunit composition).

α2GABAAR = α2GABAAR (Mus musculus, UniProt P22723+P26048); conditions: full agonist; cited from earlier work
Chain of α2GABAAR (P26048 29-451): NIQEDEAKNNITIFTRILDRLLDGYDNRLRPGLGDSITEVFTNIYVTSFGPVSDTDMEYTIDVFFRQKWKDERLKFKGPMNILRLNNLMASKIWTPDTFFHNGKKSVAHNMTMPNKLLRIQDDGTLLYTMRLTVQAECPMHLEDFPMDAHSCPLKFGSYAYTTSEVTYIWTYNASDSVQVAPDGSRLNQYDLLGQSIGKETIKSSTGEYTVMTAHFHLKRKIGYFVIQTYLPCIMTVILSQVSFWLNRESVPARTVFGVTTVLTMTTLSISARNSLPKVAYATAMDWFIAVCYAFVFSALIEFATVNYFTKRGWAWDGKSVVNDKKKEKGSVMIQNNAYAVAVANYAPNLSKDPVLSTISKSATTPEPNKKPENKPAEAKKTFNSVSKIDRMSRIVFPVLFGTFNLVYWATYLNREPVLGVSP
Chain of α2GABAAR (P22723 39-474): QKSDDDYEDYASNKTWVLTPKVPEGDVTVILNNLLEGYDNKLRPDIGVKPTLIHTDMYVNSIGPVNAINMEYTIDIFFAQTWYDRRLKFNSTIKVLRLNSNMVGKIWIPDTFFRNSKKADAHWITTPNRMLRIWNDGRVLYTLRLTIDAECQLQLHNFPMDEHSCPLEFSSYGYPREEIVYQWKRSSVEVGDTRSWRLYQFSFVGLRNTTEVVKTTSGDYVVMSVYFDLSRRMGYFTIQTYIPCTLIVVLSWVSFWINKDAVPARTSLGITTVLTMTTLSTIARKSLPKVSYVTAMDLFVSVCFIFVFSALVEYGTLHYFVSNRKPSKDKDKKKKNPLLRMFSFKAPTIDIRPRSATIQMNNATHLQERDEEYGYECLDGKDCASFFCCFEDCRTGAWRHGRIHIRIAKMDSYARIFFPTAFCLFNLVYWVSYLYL

[1] = test system: α2GABAAR-mediated antihyperalgesia; conditions: GABAAR α1 (H→R) point-mutated mice
Protocol: To avoid confounding effects of anxiolysis in sedation experiments, and of sedation on antihyperalgesia experiments triple point-mutated mice were used. Sedation was assessed in triple (H→R) point-mutated mice, in which all GABAARs except α1 had been rendered BDZ-insensitive. Conversely, antihyperalgesia was studied in GABAAR α1 (H→R) point-mutated mice to rule out confounding sedation.

[2] = test system: α1GABAAR-mediated sedation; test: Dose dependence of sedation in triple (H→R) point-mutated mice; conditions: all GABAARs except α1 BDZ-insensitive
Protocol: Mice (C57BL/6J or 129X1/SvJ) were tested during the light phase of the day-night cycle. […] Motor activity expressed as the total number of photocell interruptions was recorded for 6 h.

[3] = test system: α1β2γ2, α2β3γ2, α3β3γ2 and α5β2γ2 GABAARs; test: Whole-cell patch-clamp, results stated across several recombinant GABAAR subtypes; format: cell-based, rat; conditions: for Preference α2- versus α1GABAARs at low concentrations: low concentrations (<EC50); for Efficacy of potentiation of α2- versus α1GABAARs at saturating concentrations: saturating concentrations: 1 μM DZP, 20 μM CBZ, 20 μM NDMC; for Relative potentiation of subtypes at sub-saturating concentrations: sub-saturating concentrations (<EC50)
Source text: as §1

[4] = test system: T2, α1β2γ2, α2β3γ2, α3β3γ2 and α5β2γ2 GABAARs; test: as above; format: cell-based, rat; conditions: up to 3 μM for DZP, up to 20 μM for CBZ and NDMC
T2 construct: EC50 of potentiation of GABAAR currents; other: range over all four receptor subtypes; GABA at EC10; fused on or other part: eGFP co-expressed from an IRES on the γ2 plasmid (not fused)
Source text: as §1

[5] = test system: CCI mice, paw withdrawal threshold; test: Mechanical hyperalgesia (dynamic von Frey filaments) in CCI neuropathic pain model; format: in vivo
Protocol: (§2) Experiments were performed in wild-type mice (genetic background C57BL/6J or 129X1/SvJ), and in homozygous triple and quadruple (H→R) GABAAR point-mutated mice of the 129X1/SvJ background (Ralvenius et al., 2015, supra). Quadruple point-mutated mice were generated by cross breeding of single point-mutated mice (Crestani et al., 2002, PNAS, 99(13): 8980-8985; Low et al., 2000, Science 290(5489): 131-134; Rudolph et al., 1999, Nature, 401(6755): 796-800). Quadruple point mutated mice carry the H→R mutation in the α1, α2, α3, and α5 subunits that is in all α subunits that can form a high affinity BDZ binding site.
(§3) A chronic constriction injury (CCI) model was used. Unilateral constriction injury of the left sciatic nerve just proximal to the trifurcation was performed. Anesthesia was induced and maintained by 2% isoflurane, combined with oxygen (30%). The sciatic nerve was exposed at the mid-thigh level proximal to the sciatic trifurcation by blunt dissection through the biceps femoris muscle. 5±7 mm of nerve were freed of adhering tissue and three chromic gut ligatures (4/0) (Ethicon) were loosely put around the nerve with about 1 mm spacing. […] Heat hyperalgesia and mechanical sensitization were assessed 7 days after surgery.
Mechanical sensitivity was assessed with dynamic von Frey filaments (IITC, Woodland Hills, Calif.). […]

mice, motor activity = test: Motor activity (photocell interruptions); format: in vivo
α5β2γ2 GABAAR = target: T3, α5β2γ2 GABAAR (Rattus norvegicus, UniProt P18508+P19969); test: Whole-cell patch-clamp, potentiation of GABA-evoked currents in transfected HEK293 cells; format: cell-based; conditions: α5GABAARs; GABA at EC10
T3 construct: expressed in transfected cells; host or cells: HEK293 cells (ATCC)
T3 sequence (P19969 32-464 limits assumed): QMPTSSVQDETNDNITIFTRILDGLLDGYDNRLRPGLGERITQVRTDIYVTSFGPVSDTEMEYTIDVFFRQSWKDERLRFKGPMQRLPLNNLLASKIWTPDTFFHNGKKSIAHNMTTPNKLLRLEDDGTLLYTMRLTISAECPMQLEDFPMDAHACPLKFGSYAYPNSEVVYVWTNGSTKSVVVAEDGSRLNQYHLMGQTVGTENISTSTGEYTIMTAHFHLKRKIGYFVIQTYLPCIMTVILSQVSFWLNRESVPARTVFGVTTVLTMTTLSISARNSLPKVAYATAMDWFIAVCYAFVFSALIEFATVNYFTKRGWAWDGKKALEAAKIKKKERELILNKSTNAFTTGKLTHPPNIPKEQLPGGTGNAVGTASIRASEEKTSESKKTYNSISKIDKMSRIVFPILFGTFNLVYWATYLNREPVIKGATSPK
T3 sequence (P63138 25-474 partner limits assumed): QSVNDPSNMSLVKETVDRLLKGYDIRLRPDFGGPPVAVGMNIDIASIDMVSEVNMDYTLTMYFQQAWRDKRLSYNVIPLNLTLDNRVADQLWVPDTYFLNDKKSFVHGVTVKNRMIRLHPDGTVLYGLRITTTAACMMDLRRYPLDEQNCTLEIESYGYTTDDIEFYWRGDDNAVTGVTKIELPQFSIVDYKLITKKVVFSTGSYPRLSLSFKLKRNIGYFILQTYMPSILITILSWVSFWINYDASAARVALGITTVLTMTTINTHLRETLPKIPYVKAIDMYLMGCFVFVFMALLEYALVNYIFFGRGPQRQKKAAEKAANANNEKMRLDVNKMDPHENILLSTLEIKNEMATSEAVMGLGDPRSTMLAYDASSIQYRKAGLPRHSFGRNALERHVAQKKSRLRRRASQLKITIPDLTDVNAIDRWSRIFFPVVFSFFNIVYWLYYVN
T3 sequence (P18508 39-466): as the sequence (P18508 39-466) above
Source text: as §1

α2β3γ2 GABAAR = target: T4, α2β3γ2 GABAAR (Rattus norvegicus, UniProt P18508+P23576); test: as above; format: cell-based
T4 construct: expressed in transfected cells; host or cells: HEK293 cells (ATCC)
T4 sequence (P23576 29-451): as the sequence (P26048 29-451) above, with L88S, A174P counted along it
T4 sequence (P63079 26-473 partner): as the sequence (P63079 26-473 partner) above
T4 sequence (P18508 39-466): as the sequence (P18508 39-466) above
Source text: as §1

α1β2γ2 GABAAR = target: T5, α1β2γ2 GABAAR (Rattus norvegicus, UniProt P18508+P62813); test: as above; format: cell-based; conditions: α1GABAARs; GABA at EC10
T5 construct: expressed in transfected cells; host or cells: HEK293 cells (ATCC)
T5 sequence (P62813 28-455): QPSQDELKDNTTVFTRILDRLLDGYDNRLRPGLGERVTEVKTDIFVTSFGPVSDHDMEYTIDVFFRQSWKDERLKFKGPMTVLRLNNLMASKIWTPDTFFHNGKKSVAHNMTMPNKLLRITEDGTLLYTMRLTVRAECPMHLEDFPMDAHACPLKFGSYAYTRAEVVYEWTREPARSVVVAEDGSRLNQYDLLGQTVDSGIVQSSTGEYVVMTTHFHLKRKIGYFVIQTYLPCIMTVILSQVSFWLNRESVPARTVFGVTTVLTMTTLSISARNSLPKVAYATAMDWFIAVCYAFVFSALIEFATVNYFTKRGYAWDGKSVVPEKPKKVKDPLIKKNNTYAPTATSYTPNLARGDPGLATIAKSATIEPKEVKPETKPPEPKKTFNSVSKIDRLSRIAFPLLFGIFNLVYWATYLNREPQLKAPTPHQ
T5 sequence (P63138 25-474 partner limits assumed): as the sequence (P63138 25-474 partner limits assumed) above
T5 sequence (P18508 39-466): as the sequence (P18508 39-466) above
Source text: as §1

[6] = test system: α2 versus α1 receptor complexes; conditions: cited from earlier work
[7] = test system: CCI mice, paw withdrawal latency; test: Heat hyperalgesia (Plantar Test) in chronic constriction injury (CCI) neuropathic pain model; format: in vivo
Protocol: as §2
as §3, with “muscle.” for “muscle. 5±7 mm of nerve were freed of adhering tissue and three chromic gut ligatures (4/0) (Ethicon) were loosely put around the nerve with about 1 mm spacing.”
Paw withdrawal latencies upon exposure to a defined radiant heat stimulus were measured using a commercially available apparatus (Plantar Test, Ugo Basile, Comerio, Italy). […]

[8] = NDMC pharmacokinetics after oral administration, dried blood spot sampling, LCMS-MS; format: in vivo, C57BL/6 mice
Protocol: Pharmacokinetic parameters of NDMC following oral administration in C57BL/6 mice were determined and allowed to test whether antihyperalgesia after NDMC administration was mediated by NDMC itself and not by a down-stream metabolite.
Pharmacokinetic properties of NDMC were evaluated using the dried blood spot sampling method. This technique allows collecting multiple bleeds from the same animal over a large time window (Deglon et al., 2011, Pharm. Biomed. Analysis, 54(2): 359-367). Four μl of whole blood were collected and spotted onto a filter paper card from Whatman (Dassel, Germany) at different time points between 0 and 48 h after NDMC administration. NDMC concentration measurements were performed using a fully validated LCMS-MS (liquid chromatography—mass spectrometry or HPLC) method. Pharmacokinetic parameters were estimated by a noncompartmental method using WinNonlin® version 5.2 (Pharsight, Mountainview, Calif., USA).
Blood NDMC concentrations were measured with HPLC following single oral doses of 3, 10 and 30 mg kg^−1 in three mice per group (FIG. 5). Maximal blood levels of NDMC were reached within 2-3 hrs.

healthy volunteers = conditions: standard therapeutic doses; cited from earlier work
[9] = test system: T6, α1β2γ2, α2β3γ2, α3β3γ2 and α5β2γ2 GABAARs; test: Whole-cell patch-clamp, results stated across several recombinant GABAAR subtypes; format: cell-based, rat; conditions: α1-, α2- and α5-GABAARs together; GABA at EC10
T6 construct: rows headed: Potentiation of the other three α1-, α2-, and α5-GABAARs subtypes; other: α1-, α2- and α5-GABAARs together; GABA at EC1; fused on or other part: eGFP co-expressed from an IRES on the γ2 plasmid (not fused)
Source text: as §1

[10] = after a single oral dose of 20 or 30 mg of CBZ; cited from earlier work
[11] = quadruple point-mutated mice, 30 mg kg^−1
[12] = single oral doses of 3, 10 and 30 mg kg^−1

| Structure (SMILES) | Potentiation of currents (% increase upon application) (α3β3γ2 GABAAR) | ED50 antihyperalgesia [1] | Preference α2- versus α1GABAARs at low concentrations [3] | Efficacy of potentiation of α2- versus α1GABAARs at saturating concentrations [3] | Relative potentiation of subtypes at sub-saturating concentrations [3] | Direct activation of GABAAR currents [4] | Binding affinity for α2 versus α1 receptor complexes [6] | Analgesic effect (healthy volunteers) | further results |
| --- | --- | --- | --- | --- | --- | --- | --- | --- | --- |
| CN1C(=O)CN=C(c2ccccc2)c2cc(Cl)ccc21 [DZP, diazepam] | 237% | 3.4 ± 1.3 mg/kg | favored α1GABAARs | potentiated both GABAAR subtypes with similar efficacy | α1GABAAR mediated currents were potentiated more strongly than α2-, α3- and α5-GABAARs mediated currents | did not directly activate GABAAR currents | – | – | α2GABAAR occupancy at which significant analgesia (>50% maximum possible effect) is achieved (α2GABAAR): about 70%; ED50 sedation [2]: 0.59 ± 0.08 mg/kg |
| O=C1CC(=O)N(c2ccccc2)c2cc(Cl)ccc2N1 [NDMC, 8-Chloro-1-phenyl-1H-1,5-benzodiazepine-2,4(3H,5H)-dione] | 245% | 3.1 ± 0.9 mg/kg | preferred α2GABAARs across the entire concentration range tested | clearly favored α2-over α1GABAARs | highest for α2- followed by α3-, and lowest for α5- and α1-GABAARs mediated currents | did not directly activate GABAAR currents | a difference which is shared | – | Reversal of mechanical hypersensitivity (paw withdrawal threshold) ([5]; C57BL/6J mice, injured paw, NDMC 3, 10, 30 mg/kg, compared to vehicle): dose-dependently reversed this hypersensitivity; Antihyperalgesic effect, mechanical hyperalgesia [5, 11]: completely lost its antihyperalgesic effects; Effect on locomotor activity (sedation) (mice, motor activity; 129X1/SvJ mice, all tested doses): did not cause any measurable reduction in locomotor activity; Effect on motor activity (sedation) (mice, motor activity; C57BL/6J mice, 3, 10, 30 mg/kg, recorded for 6 h): did not impair motor activity at any dose; Potentiation of currents (% increase upon application) (α5β2γ2 GABAAR): 148%; Efficacy at α2β3γ2GABAARs compared with DZP (α2β3γ2 GABAAR): even stronger efficacy at α2β3γ2GABAARs than the full agonist DZP; Potentiation of currents (% increase upon application) (α2β3γ2 GABAAR; α2GABAARs, GABA at EC10): 253%; Potentiation of currents (% increase upon application) (α1β2γ2 GABAAR): 143%; Reversal of thermal hypersensitivity (paw withdrawal latency) ([7]; C57BL/6J mice, injured paw, NDMC 3, 10, 30 mg/kg): dose-dependently reversed this hypersensitivity; Antihyperalgesic effect, heat hyperalgesia [7, 11]: completely lost its antihyperalgesic effects; α2/α1GABAAR selectivity ratio ([3]; compared among DZP, CBZ and NDMC): most favorable α2/α1GABAAR selectivity ratio; half-life ([8]; C57BL/6, mouse, plasma, range over single oral doses of 3, 10 and 30 mg kg^−1): 4.6 to 5.6 h; Average maximum plasma concentration ([8]; single oral dose 3 mg kg^−1): 1.2 µg/mL; Average maximum plasma concentration ([8]; single oral dose 10 mg kg^−1): 1.9 µg/mL; Average maximum plasma concentration ([8]; single oral dose 30 mg kg^−1): 3.3 µg/mL; Time to average maximum plasma concentrations [8, 12]: about 2.5 hrs; Time to maximal blood levels [8, 12]: 2 to 3 h |
| O=C1CN=C(c2ccccc2Cl)c2cc([N+](=O)[O-])ccc2N1 [clonazepam] | – | – | – | – | – | – | no distinction of affinity between α2 and α1 receptor complexes | weak analgesic effects | – |
| CN1C(=O)CC(=O)N(c2ccccc2)c2cc(Cl)ccc21 [CBZ, clobazam] | about 300% | – | about similar effects on α2- and α1GABAARs | potentiated both GABAAR subtypes with similar efficacy | α1GABAAR mediated currents were potentiated similarly to α2-, α3- and α5-GABAARs mediated currents | did not directly activate GABAAR currents | higher binding affinity for α2 versus α1 receptor complexes | weak analgesic effects | Potentiation of the other three α1-, α2-, and α5-GABAARs subtypes [9]: about 150%; Half-life in human [10]: 23 to 24 h |
